# From patent US12655132B2, “Crystal forms of a pyridazinone TRPC inhibitor” (GFB (ABC), LLC, priority 2019, dated 2026)
# Test: Stability of crystalline form E at different relative humidities over 3-14 days
# Assay type: physicochemical
# Protocol: Crystalline form E was also tested for stability at different relative humidities over 3-14 days. The results are shown below in Table 3.1
smiles,measurement,setting,value
"O=c1[nH]ncc(N2CCc3c(ncnc3Oc3ccc(F)cc3C(F)(F)F)C2)c1Cl [Crystalline Form E, 4-chloro-5-(4-(4-fluoro-2-(trifluoromethyl)phenoxy)-5,8-dihydropyrido[3,4-d]pyrimidin-7(6H)-yl)pyridazin-3(2H)-one]",Stability of Crystalline Form E at Different Relative Humidities (RH): crystal type found,"30% RH, 3 days",Type E
same,Stability of Crystalline Form E at Different Relative Humidities (RH): crystal type found,"30% RH, 7 days",Type E
same,Stability of Crystalline Form E at Different Relative Humidities (RH): crystal type found,"30% RH, 14 days",Type E + Type F
same,Stability of Crystalline Form E at Different Relative Humidities (RH): crystal type found,"50% RH, 3 days",Type E
same,Stability of Crystalline Form E at Different Relative Humidities (RH): crystal type found,"50% RH, 7 days",Type E
same,Stability of Crystalline Form E at Different Relative Humidities (RH): crystal type found,"50% RH, 14 days",Type E
same,Stability of Crystalline Form E at Different Relative Humidities (RH): crystal type found,"60% RH, 3 days",Type E
same,Stability of Crystalline Form E at Different Relative Humidities (RH): crystal type found,"60% RH, 7 days",Type E
same,Stability of Crystalline Form E at Different Relative Humidities (RH): crystal type found,"60% RH, 14 days",Type E
same,Stability of Crystalline Form E at Different Relative Humidities (RH): crystal type found,"92.5% RH, 3 days",Type E
same,Stability of Crystalline Form E at Different Relative Humidities (RH): crystal type found,"92.5% RH, 7 days",Type E
same,Stability of Crystalline Form E at Different Relative Humidities (RH): crystal type found,"92.5% RH, 14 days",Type E
same,Stability at low relative humidity (conclusion in words),"storage for 14 days at 30% relative humidity, appearance of Type F",unstable
